Source: patent US8138191B2, “Inhibitor compounds and cancer treatment methods” (Critical Outcome Technologies Inc., priority 2007, dated 2012)
Where two headings read alike, the source gives them in different places.

Assays:
DMS114 cells = test: siRNA target knock-down with COTI-219, cell viability by trypan blue, DMS114; format: cell-based, human; conditions: DMS114, 500 nM, 48 h
Description: In brief, cells DMS114 and SHP77 cells were transfected with gene specific siRNA in the presence or absence of COTI-219 and cell viability determined after 24 to 48 h post-incubation using the trypan blue exclusion method.
Cell cultures were maintained under regular tissue culture conditions and passaged 1-2 times a week as recommended by ATCC. With the exception of the siRNA for Bim (Signal Silence Bim siRNA kit #6460 from Cell Signaling), all other siRNA reagents for gene knock-down experiments was obtained from Ambion (Silencer Negative Control #1 siRNA #AM4611, CDK2 Silencer Select #s204, HRAS Silencer Select #s807, Protein kinase C alpha Silencer Validated #301, MAPK3/Erk Silencer Pre-designed #214749, EGFR Silencer Select #s563, and ERBB2 Silencer Select #s611). […] The transfection method required optimization such that a knock-down of the target gene greater than ˜75% was achieved and confirmed by western blot analyses. […] Following an optimal knock-down level at >75%, 2×10^5 cells were incubated with 500 nM COTI-219 and number of viable cells was measured at 48 h.
Cell viability assays were performed 24 to 48 h following incubation with COTI-219 by the trypan blue exclusion method using a Beckman-Coulter Vi-CELL XR 2.03 automated cell counter. Routine laboratory methods were employed for the production of cellular lysates, protein quantitation, SDS-PAGE and western blotting. […]

[1] = system: A2780 human ovarian tumor xenograft; test: A2780 human ovarian tumor xenograft model; conditions: for Day 17 CS (Complete Tumor Shrinkage): N 10
[2] = Metabolic Stability (liver microsomes, rat, Sprague-Dawley); format: in vitro ADME; conditions: 1.0E−06 M, 60 min
Description: Metabolic stability was determined in human (mixed gender and pool of 50) monkey (male Cynomolgus, pool of 6 or more), dog male, beagle, pool of 4 or more) and rat (male Sprague-Dawley, pool of 100 or more) liver microsomes. […] Four reference substrates (1 μM) were tested simultaneously with COTI-2. […] Peak areas corresponding to COTI-2 were recorded by HPLC-MS/MS. Metabolic stability, expressed as percent of COTI-2 remaining, was calculated by comparing the peak area of COTI-2 at 60 min to time zero.

[3] = A-B Permeability (TC7, pH 7.4/7.4) + verapamil; format: in vitro ADME; conditions: human, Caco-2, pH 7.4, with verapamil (concentration not stated), 1.0E−05 M
[4] = system: DMS114 and SHP77 cell lines; test: Microarray differential gene expression analysis; format: cell-based, human; conditions: 150 or 300 nM, 6 h
Description: For each cell line, four sets of microarray experiments were performed, with each set consisting of control and treated cells exposed for 6 h either to DMSO or COTI-2 at 150 or 300 nM total concentration. Total RNA was prepared with RNeasy (Qiagen) and converted to Cy3 or Cy5-labelled cRNA according to procedures provided with the linear amplification kit from Agilent Technologies. Two hundred […] of labeled cRNA were hybridized to 4×44K Agilent whole genome microarrays, the arrays were washed, scanned and relevant features were extracted according to the manufacturer's protocol and further analyzed as described by Wolber et al. (Methods in Enzymology 410:28-57), which is incorporated herein by reference in its entirety.
Cy5 and Cy3 features were extracted and normalized by median centering the expression values relative to the median value of the 8 hybridization experiments performed on each microarray slide. […] Statistically significant changes in gene expression between treatment and control groups were determined by SAM analysis using TIGR software from The Institute of Genomic Research or by t tests with false discovery correction. Only genes that were differentially expressed in all 4 biologically-independent groups were further analyzed. […] The intersection of common genes was determined using GeneVenn (http://mcbc.usm.edu/qenevenn/genevenn.htm).

[5] = In vivo pharmacokinetics in rats, IV dosing; conditions: IV
Text: Pharmacokinetic studies in animal models provide valuable information that enables prediction of metabolism in humans. There are a large variety of animal models that allow for the pharmacokinetic evaluation of compounds by providing information on serum, plasma, and tissue levels. […] As a result, it is important to keep this phenomenon in mind during extrapolations from animal to human metabolism. An initial pharmacokinetic assessment of COTI-2, administered both intravenously and orally, in its parent formulation and as both an oxalate and tartrate salt were evaluated in rats.
A single oral or IV dose of the COTI-2 free-base or the aforementioned salt forms was administered to groups of male and female rats and blood samples collected and processed at several time-points post-treatment.

SMILES	target knock-downs suppressing the action of COTI-219 on apoptosis/cell growth (DMS114 cells)	Day 17 Mean tumor weight ([1]; COTI-2 12.5 mg/kg IV)	Day 17 TGI ([1]; COTI-2 12.5 mg/kg IV)	Maximum weight loss (%) (Day #) ([1]; COTI-2 12.5 mg/kg IV, Day 11)	Day 17 CS (Complete Tumor Shrinkage) ([1]; COTI-2 12.5 mg/kg IV)	Day 17 Mean tumor weight ([1]; COTI-2 50.0 mg/kg IV)	Day 17 TGI ([1]; COTI-2 50.0 mg/kg IV)	Maximum weight loss (%) (Day #) ([1]; COTI-2 50.0 mg/kg IV, Day 8)	Day 17 CS (Complete Tumor Shrinkage) ([1]; COTI-2 50.0 mg/kg IV)	Mean Parent Remaining [2]	recovery at 10 µM ([3]; 1st determination, read-out: Percent Recovery 1st)	recovery at 10 µM ([3]; 2nd determination, read-out: Percent Recovery 2nd)	recovery at 10 µM ([3]; mean, read-out: Percent Recovery Mean)	AKT gene expression [4]	Rictor (mTOR-Rictor) expression [4]	clearance (CL) from plasma, fold higher than the oxalate formulation [5]	clearance (CL) from plasma, fold higher than the tartrate formulation [5]
CN1CCN(C(=S)NN=C2c3ncccc3-c3cccnc32)CC1 [COTI-219]	only the Ras knock-down was able to suppress the action of COTI-219																
S=C(N/N=C1/CCCc2cccnc21)N1CCN(c2ccccn2)CC1 [COTI-2]		1,699.2 ± 241.4 mg	22.04%	10.35% (Day 11)	0	1,622.8 ± 403.0 mg	25.76%	8.65% (Day 8)	0	1%	17%	13%	15%	down-regulated	down-regulation of Rictor	approximately 1.4 fold	~2.3 fold
